We go through nine compounds from US8071810B2, “C5a receptor antagonists” (Jerini AG, priority 2005, dated 2011).

The solubility is the concentration that dissolves in the medium under given conditions. Read a high solubility as a readily soluble substance. For orientation: IC50 means the concentration at which inhibition is half-maximal. Broadly, the Papp A→B is how fast a substance crosses the layer from the apical side. Read a low Papp A→B as poor permeation.

Series [1] is described as follows: Stability (shelf life) as solid TFA salt, RP-HPLC (Example 25). As to conditions: light, room temperature, up to 7 days. Type of series: physicochemical. As for the experimental part: The fractions containing the desired compound are lyophilized. In this way 1-40 mg of the compounds 11 and 13 are isolated as solid. Due to the basic amino groups the compounds are obtained as TFA salts. 0.5-10 mg of the solid are stored under the influence of light at room temperature to determine their stability over time.
The conditions were as follows:
FIG. 1 A): after purification via HPLC (solution in MeCN/H2O/TFA),
FIG. 1 B) after lyophilization (0 days of storage as solid)
FIG. 1 C) after 7 days of storage as solid

Series [2] addresses T1, human C5a receptor (CD88) (Homo sapiens, UniProt P21730).
T1 construct: expressed in transfected cells; host or cells: rat basophilic leukemia (RBL) cells, stably transfected
T1 sequence (P21730 1-350): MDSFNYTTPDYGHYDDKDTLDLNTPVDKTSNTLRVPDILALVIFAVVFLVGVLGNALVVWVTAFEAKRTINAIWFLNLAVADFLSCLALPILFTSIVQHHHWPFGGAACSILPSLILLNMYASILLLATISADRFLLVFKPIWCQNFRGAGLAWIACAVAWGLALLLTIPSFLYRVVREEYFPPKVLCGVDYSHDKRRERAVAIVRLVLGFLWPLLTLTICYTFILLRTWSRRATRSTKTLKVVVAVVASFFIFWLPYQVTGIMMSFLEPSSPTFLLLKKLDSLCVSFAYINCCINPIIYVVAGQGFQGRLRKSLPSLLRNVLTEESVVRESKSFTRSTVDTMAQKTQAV
Kind of series: Agonism in enzyme release assay without C5a stimulus (Example 32). It counts as cell-based. As to conditions: concentration applied 7.1 μM. The method, then:
The assay has been described by Köhl (Köhl 1997 The Anaphylatoxins. In: Dodds, A. W., Sim, R. B. (Eds.), Complement: A Practical Approach. Oxford: 135). Basophile leukemia cells from rats (RBL), which express the human C5a receptor (CD88), are cultivated in DMEM with 10% fetal calf serum, 100 U/ml penicillin, 100 μg/ml streptomycin and 2 mM glutamin (all constituents are from Biochrome, Berlin) at 37° C. and with 10% CO2 until a confluent layer is obtained. All following details refer to a tissue culture flask with 75 cm^2 surface. The used up medium is removed. The cells are washed with 10 ml PBS (Dulbecco's PBS, Biochrome) and then covered with 3 ml cell dissociation solution (CDS, Sigma). The cells are incubated for 1 minute at room temperature. Then the CDS is removed and the cells are incubated for further 10-15 minutes at 37° C. to detach the cells completely from the flask. 20 μl solution of the compound to be testet are used in the assay. The assay solution must not contain more than 2.8% DMSO. The dilution series are prepared in ⅓ or ½ steps. To the 20 μl of the compound solutions 75 μl RBL cells are added which are prepared as follows: After the detachment of the cells from the flask surface they are taken up with 10 ml HAG-CM (20 mM HEPES; 125 mM NaCl, 5 mM KCl, 1 mM CaCl2, 1 mM MgCl2, 0.5 mM glucose, 0.25% BSA. HEPES preparation: 2.3 g/l HEPES salt+2.66 g/l HEPES acid) thermostated at 37° C. The cells are counted and centrifuged (200 g, 10 min). The cell pellet is taken up with pre-heated HAG-CM, and the cell density is adjusted to 2×10^6 Zellen/ml. The cells are incubated for 5 minutes at 37° C. 2.7 μl of a cytochalasin B solution (1000 μg/ml in DMSO, Sigma) are added per ml cell suspension. The Zellen are incubated for another 3 min at 37° C. Then, 75 μl of the cell suspension are added to the 20 μl solution containing the compounds to be tested. Thus a volume of […] per well is obtained. The cells are again incubated for 10 minutes at 37° C. Then 10 μl hrC5a (10.5 nM in HAG-CM, Sigma) are added per well, which is followed by 5 minutes incubation at 37° C. After this the plates are put on ice and centrifuged for 3 minutes at 1200×g and 4° C. 75 μl of the supernatant are added to 100 μl substrate solution (2.7 mg/ml p-nitrophenyl-N-acetyl-b-D-glucosaminide (Sigma) in 42.5 mM sodium acetate, pH 4.5). The plate is incubated for 1 hour at 37° C. Per well 75 μl 0.4 M glycine (pH 10.4) are added. After this the plate can be measured at a wave length of 405 nm. The IC50 value is determined by solving the four parameter equation y=((A−D)/(1+(x/C)^B))+D.
The only difference is the fact that 30 μl of the substance to be tested are mixed with 75 μl of the cell suspension described in example 28. The cells are not pre-incubated and no C5a is added to stimulate enzyme release.

The nature of series [3]: Solubility in aqueous HEPES buffer by HPLC (Example 33). As to conditions: kinetic from dmso stock. It counts as physicochemical. The method, then:
To determine the solubility the compound to be measured is dissolved (e.g, […] of a 5 mM solution in DMSO) in organic solvent (e.g. 198 μl DMSO) as well as in aqueous buffer solution (e.g. 198 μl HEPES buffer). Both solutions are analyzed via analytical HPLC and the areas under the peaks are compared. The value for the organic solution is taken as 100%.

Series [4] has as its target T1, human C5a receptor (CD88). Kind of series: C5a induced enzyme (glucosaminidase) release assay in RBL cells expressing the human C5a receptor (Example 28). Type of series: cell-based. As to conditions: for IC50: RBL cells with human C5aR. The gist of the method: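 Rat basophilic leukemia (RBL) cells expressing human C5a receptor, at 2×10^6 cells/ml, primed with cytochalasin B, then incubated with test compound 10 min at 37 °C.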

Series [5] deals with T2, C5a receptor (Homo sapiens, UniProt P21730).
T2 sequence (P21730 1-350): T1 sequence (P21730 1-350)
The settings on record: cited from earlier work.

Series [6] can be described thus: AB permeability in TC-7 cell based assay (Example 34). Type of series: in vitro ADME. As to conditions: human, Caco-2, TC-7 cells, apical pH 6.5 / basolateral pH 7.4, 120 min. As for the experimental part: Compounds to be tested are prepared at a concentration of 50 μM in HBSS-MES (5 mM, pH 6.5) (from a 10 mM stock solution in 100% DMSO). ^14C-mannitol (about 4 μM) is added and the solution is mixed and centrifuged. The supernatant is added to the apical side of a TC-7 cell culture (passage 15, in 24 well transwell plate) to obtain a DMSO concentration of 1%. At the basolateral side HBSS-HEPES (5 mM, pH 7.4) is placed. Subsequently, the cells are incubated for 120 minutes at 37° C. The integrity of the TC-7 cell layer is checked by means of the added mannitol (Papp <2.5 10^−6 cm/s). The Permeabilität Papp [cm/s] is equal to (VR×CR120)/(Δt×A×(CD,mid−CR,mid)). VR is the volume of the receiver chamber, CR120 the concentration the test compound in the receiver chamber after 120 minutes, Δt the incubation time, A the area of the TC-7 cell layer, CD,mid the midpoint concentration of the test substance in the donor chamber and CR,mid the concentration of the test compound in the receiver chamber.
On the technique in general: Caco-2 monolayers are a common model of the intestinal barrier.

Series [7] deals with T2, C5a receptor. Kind of series: Binding of 125I-C5a to human C5aR transfected HEK293 cells (Example 27). Set-up: expressed in transfected cells; host or cells: HEK293 cells. As to conditions: 125I-C5a tracer, read-out: IC50 for the inhibition of the binding of C5a to the C5a receptor. As for the experimental part: The binding studies are done as determination of IC50 values with radioactively labeled C5a (125I) as tracer. For this purpose, human C5aR transfected HEK293 cells are adjusted to a concentration of […]. 30 μl of the cell suspension are added into a microtiter plate. Then the C5a receptor antagonists are added followed by 10 minutes pre-incubation at room temperature. After that, 10 μl of labelled C5a are added (15.000 cpm). The mixture is now incubated over ice for 30 minutes. After this the cells are isolated by means of a filter plate (Millipore MHVB 4510) and washed two times with 100 μl HAG-CM each (see example 32). The cells are dried and, after transferring the filter plate onto the adapter plate (Canberra 6005178), 50 μl/well Microscint 0 are added and the plate is measured in the scintillation counter.

Series [8] concerns E. coli induced oxidative burst in human whole blood. Kind of series: E. coli induced oxidative burst in human whole blood (Phagoburst kit, Example 26). It counts as cell-based. As to conditions: read-out: IC50 for the inhibition of the E. coli induced oxidative burst in human whole blood. The method, then:
The whole blood assay is carried out according to the instructions from the Phagoburst-Kit (Orpegen Pharma). 50 μg/ml of Refludan is used to inhibit blood clotting (Mollnes et al. 2002 Blood 100: 1869). Freshly drawn, anticoagulated blood is cooled over ice and 100 μl thereof are added to 10 μl of the compound solution containing at most 1.3% of DMSO. The mixture is incubated for 10 minutes at 37° C. After this the samples are put on ice again and 20 μl of opsonisated E. coli suspension (10^9 cells/ml) is added followed by 10 minutes of incubation at 37° C. 20 μl of the substrate are added to the cells followed by another 10 minutes of incubation at 37° C. After this 2 ml of lysis buffer are added to the cells, which are then kept at room temperature for 20 minutes. The cellular components are separated by centrifugation at 250×g for 5 minutes. The supernatant is discarded and 3 ml of washing solution are added to the pellet. The cells are centrifuged again and the resulting pellet is taken up in 200 μl DNA staining solution. The neutrophiles are analysed by means of a FACS device (FACSCalibur, Becton-Dickinson) according to the parameters given in the manual. […] It can be seen that, due to the determined activity, the compounds of this invention are suited to be used as therapeutics in human.

[9] abbreviates: read-out: IC50 for the inhibition of C5a induced enzyme release.
Where [10] appears, read: ratio of enzyme release IC50 values.
The mark [11] stands for this setting: inhibition of C5a induced enzyme release, read-out: Activity-range (antagonistic activity, IC50 enzyme release).

≈ marks a conversion by molar mass, not a printed value. Where “and” joins values, the source holds several entries; their conditions need not be identical. Equal values may be shown once. Read-outs that look alike come from different tables or passages of the source.

For the compound `CCc1c(N)cc(Cl)c(CC)c1NC(=O)N(Cc1ccc(OC)cc1)c1ccc(C(C)C)cc1` [compound 13], the “Stability on storage as solid” value in series [1] is “does not show such instabilities”.

As for `CCc1c(N)cc(Cl)c(CC)c1NC(=O)N(Cc1ccc(OC)cc1)c1ccc(C(C)C)cc1` [compound 31, 3-(3-amino-5-chloro-2,6-diethyl-phenyl)-1-(4-isopropyl-phenyl)-1-(4-methoxy-benzyl)-urea], the “Agonism (% of the maximum enzyme release induced by C5a)” value in series [2] is on record as 0.12%. The same compound gave a solubility in series [3] of 2 µM (≈ 0.96 µg/mL). Further, in series [4] (setting [9]), the IC50 came out at 0.164 µM. In addition, the “Increase of the antagonistic activity by a factor (vs compound 24, NH2 group introduced)” value in series [4] (setting [10]) was 6.4.

As to `Cc1ccccc1C1c2ccccc2CCN1CC(=O)N(Cc1cccc(O)c1)C1Cc2ccccc2C1` (stereo not shown) [Compound 9, N-(3-Hydroxy-benzyl)-N-indane-2-yl-2-(1-o-tolyl-3,4-dihydro-1H-isochinolin-2-yl)-acetamide, reference compound], the “activity, inhibition of C5a induced calcium mobilization” value at C5a receptor [5] is listed as 24 nM. In addition, the IC50 in series [4] (setting [9]) is 7.15 µM and 7.14 µM.

For the compound `CCc1c(N)cc(Cl)c(CC)c1NC(=O)N(Cc1ccc(Cl)cc1)c1ccc(OC)c2cccnc12` [compound 125, 3-(3-amino-5-chloro-2,6-diethyl-phenyl)-1-(4-chloro-benzyl)-1-(5-methoxy-chinolin-8-yl)-urea], in series [2], the “Agonism (% of the maximum enzyme release induced by C5a)” value came to 0.00%. The same compound showed a Papp A→B at 120 min, 50 μM in series [6] of 2.9 ×10⁻⁶ cm/s. For the same compound, the concentration in solution in series [3] (solubility) came to 4 µM (≈ 2.09 µg/mL). Further, in series [4] (setting [11]), the IC50 lay in the range of 0.06 to 0.2 µM.

Consider `CCc1c(N)cc(Cl)c(CC)c1NC(=O)N(c1ccc(C(C)C)cc1)C1CCc2cc(Cl)ccc21` (stereo not shown) [compound 88, 3-(3-amino-5-chloro-2,6-diethyl-phenyl)-1-(5-chloro-indane-1-yl)-1-(4-isopropyl-phenyl)-urea], for which the results for the IC50 (on C5a receptor [7]; in series [4] (setting [11])) were 0.044 µM and 0.06 to 0.2 µM, respectively.

In the case of `CCc1c(N)cc(Cl)c(CC)c1NC(=O)N(Cc1ccc(Cl)cc1)c1ccc(NC)cc1` [compound 120, 3-(3-amino-5-chloro-2,6-diethyl-phenyl)-1-(4-chloro-benzyl)-1-(4-methylamino-phenyl)-urea], the IC50 in series [8] came to 1.9 µM; at C5a receptor [7] it was 0.0865 µM. Moreover, the “Improvement of the antagonistic activity by a factor (vs compound 98, CH2 exchanged by NH)” value in series [4] (setting [10]) is given as 4.5.

For the compound `CCc1c(N)cc(Cl)c(CC)c1NC(=O)N(c1ccc(OC)cc1F)[C@@H](C)c1ccc(Cl)cc1` [compound 102, (S)-3-(3-amino-5-chloro-2,6-diethyl-phenyl)-1-[1-(4-chloro-phenyl)-ethyl]-1-(2-fluoro-4-methoxy-phenyl)-urea], in series [2], the “Agonism (% of the maximum enzyme release induced by C5a)” value is given as 0.00%. Further, in series [6], the apical-to-basolateral permeability (Papp A→B) at 120 min, 50 μM is 1.1 ×10⁻⁶ cm/s. In series [8], the IC50 came to 3.2 µM.

Consider `CCc1c(N)cc(Cl)c(CC)c1NC(=O)N(c1ccc(NC)cc1)[C@@H](C)c1ccccc1` [compound 132, (S)-3-(3-amino-5-chloro-2,6-diethyl-phenyl)-1-(4-methylamino-phenyl)-1-(1-phenyl-ethyl)-urea], for which the IC50 is 0.62 µM in series [8], 0.0434 µM at C5a receptor [7] and under 0.06 µM in series [4] (setting [11]).

On to `CN(CC(=O)N(Cc1ccccc1F)C1Cc2ccccc2C1)C(c1ccccc1)c1ccccc1` [Compound 10, 2-(Benzhydryl-methyl-amino)-N-(2-fluoro-benzyl)-N-indane-2-yl-acetamide, reference compound], for which the “activity, inhibition of C5a induced calcium mobilization” value on C5a receptor [5] is 465 nM. Further, the IC50 in series [4] (setting [9]) was over 4.76 µM; in series [4] (setting [11]), over 5 µM.
